Source: patent US10214512B2, “Factor XIA inhibitors” (MERCK SHARP & DOHME CORP., priority 2015, dated 2019)

Experiments:
[1] = target: purified Human plasma Kallikrein (Homo sapiens (Human), UniProt P03952); test: Kallikrein Assay; format: biochemical; conditions: purified Human plasma Kallikrein 0.5 nM; substrate Acetyl-K-P-R-AFC; 50 mM HEPES pH 7.4; Ki from IC50 by Cheng Prusoff
Summary of the method: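 Purified human plasma kallikrein (0.5 nM) with fluorogenic Ac-K-P-R-AFC ([…]) in 50 mM HEPES pH 7.4, 150 mM NaCl, 5 mM CaCl2, 0.1% PEG 8000, at rt or 37 °C. Substrate hydrolysis rate read with and without inhibitor; IC50 from four-parameter logistic fit, converted to Ki by Cheng–Prusoff.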

[2] = target: purified human Factor XIa (Homo sapiens (Human), UniProt P03951); test: Factor XIa Assay; format: biochemical; conditions: purified human Factor XIa 40 pM; substrate Z-Gly-Pro-Arg-AFC 100 μM; 50 mM HEPES pH 7.4; read-out: Human FXIa Ki
Summary of the method: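 Ki obtained from the dependence of uninhibited/inhibited initial-velocity ratio on inhibitor concentration, under a competitive-inhibition model. Reactions used 100 μM Z-Gly-Pro-Arg-AFC and 40 pM final human Factor XIa in pH 7.4 HEPES buffer with NaCl, CaCl2 and PEG 8000; run at rt or 37° C following pre-equilibration.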

Sequence of purified human Factor XIa (P03951 388-625): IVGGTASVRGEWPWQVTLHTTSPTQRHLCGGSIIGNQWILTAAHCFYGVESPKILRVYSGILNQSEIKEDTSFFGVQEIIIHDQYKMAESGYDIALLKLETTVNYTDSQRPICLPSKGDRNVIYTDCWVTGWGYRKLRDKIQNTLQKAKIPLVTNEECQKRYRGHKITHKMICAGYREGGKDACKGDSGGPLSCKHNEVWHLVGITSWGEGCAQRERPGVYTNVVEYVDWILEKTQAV
Sequence of purified human Factor XIa (P03951 19-387 partner): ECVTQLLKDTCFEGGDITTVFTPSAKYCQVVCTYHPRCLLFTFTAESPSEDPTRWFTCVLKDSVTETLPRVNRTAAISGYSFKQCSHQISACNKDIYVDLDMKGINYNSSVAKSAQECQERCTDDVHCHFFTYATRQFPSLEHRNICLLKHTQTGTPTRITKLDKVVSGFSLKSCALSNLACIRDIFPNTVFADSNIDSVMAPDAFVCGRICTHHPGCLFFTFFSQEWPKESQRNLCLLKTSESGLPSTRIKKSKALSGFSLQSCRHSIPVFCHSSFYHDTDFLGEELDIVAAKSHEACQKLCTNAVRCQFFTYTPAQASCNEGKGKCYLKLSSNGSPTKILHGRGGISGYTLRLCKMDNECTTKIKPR
Sequence of purified Human plasma Kallikrein (P03952 391-638): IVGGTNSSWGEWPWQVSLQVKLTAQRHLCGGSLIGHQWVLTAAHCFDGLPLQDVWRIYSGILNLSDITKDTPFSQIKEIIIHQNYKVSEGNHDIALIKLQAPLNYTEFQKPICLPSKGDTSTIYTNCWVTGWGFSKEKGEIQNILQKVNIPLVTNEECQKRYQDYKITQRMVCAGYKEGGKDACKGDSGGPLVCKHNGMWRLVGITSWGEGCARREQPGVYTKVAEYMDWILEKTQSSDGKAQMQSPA
Sequence of purified Human plasma Kallikrein (P03952 20-390 partner): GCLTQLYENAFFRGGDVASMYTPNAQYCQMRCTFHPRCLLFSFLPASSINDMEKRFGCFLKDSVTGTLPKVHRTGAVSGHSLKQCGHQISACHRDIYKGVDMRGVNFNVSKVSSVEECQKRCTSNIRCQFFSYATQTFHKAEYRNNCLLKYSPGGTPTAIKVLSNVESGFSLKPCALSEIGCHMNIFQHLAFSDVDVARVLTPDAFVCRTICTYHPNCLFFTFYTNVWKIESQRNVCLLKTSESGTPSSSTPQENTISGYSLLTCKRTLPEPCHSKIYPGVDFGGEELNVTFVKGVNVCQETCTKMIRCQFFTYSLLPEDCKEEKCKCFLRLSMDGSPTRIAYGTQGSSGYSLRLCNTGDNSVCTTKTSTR

Q: `COC(=O)Nc1ccc2c(c1)NC(=O)CCCCC(c1ccc(-c3c(F)ccc(Cl)c3F)c[n+]1[O-])c1cc-2cc[n+]1[O-]` (stereo not shown) [Example 83, 9-(5-(3-chloro-2,6-difluorophenyl)-1-oxidopyridin-2-yl)-2^4-((methoxycarbonyl)amino)-4-oxo-3-aza-1(4,2)-pyridin-1-iuma-2(1,2)-benzenacyclononaphane 1^1-oxide] was tested. Which Ki [1] did it give?
A: 5.47 nM

Q: What about the Ki [2] of the same compound?
A: 2.2 nM

Q: Which Ki [1] does the source give for `CC1CCCC(c2ccc(-c3cc(Cl)ccc3-n3cnnn3)c[n+]2[O-])c2cccc(c2)-c2ccc(C#N)cc2NC1=O` (stereo not shown) [Example 84, 5-(5-chloro-2-(1H-tetrazol-1-yl)phenyl)-2-(2^4-cyano-5-Methyl-4-OXO-3-aza-1(1,3), 2(1,2)-dinenzenacyclononaphane-9-yl)pyridine 1-oxide] here?
A: 1.85 nM

Q: What about the Ki [2] of the same compound?
A: 0.38 nM

Q: For `COC(=O)Nc1ccc2c(c1)NC(=O)CCCCC(c1ccc(-c3c(F)ccc(Cl)c3F)c[n+]1[O-])c1cc[n+]([O-])c-2c1` (stereo not shown) [Example 94, 9-(5-(3-Chloro-2,6-difluorophenyl)-1-oxidopyridin-2-yl)-2^4-((methoxycarbonyl)amino)-4-oxo-3-aza-1(2,4)-pyridin-1-iuma-2(1,2) -benzenacyclononaphane 1-oxide], which Ki [1] is on record?
A: 11.3 nM

Q: And the Ki [2]?
A: 5.1 nM

Q: `COC(=O)Nc1ccc2c(c1)NC(=O)CCCCC(c1ccc(-c3cc(Cl)ccc3-n3cnnn3)cn1)c1nc-2c[nH]1` (stereo not shown) [Example 97, methyl (Z)-(9-(5-(5-chloro-2-(1H-tetrazol-1-yl)phenyl)pyridin-2-yl)-4-oxo-1^1H-3-AZA-1(4,2)-imidazola-2(1,2)-benzenacyclononaphane-2^4-yl)carbamate] was tested. Which Ki [1] did it give?
A: 161 nM

Q: And the Ki [2]?
A: 3.3 nM

Q: How did the Ki [1] turn out when `O=C1CCCCC(c2ccc(-c3cc(Cl)ccc3-n3cc(C(F)(F)F)nn3)c[n+]2[O-])c2cccc(c2)-c2c(cnn2C(F)F)N1` (stereo not shown) [Example 165, 5-(5-chloro-2-(4-(trifluoromethyl)-1H-1,2,3-triazol-1-yl)phenyl)-2-(1^1-(difluoromethyl)-8-oxo-1^1H-9-aza-1(5,4)-pyrazola-2(1,3) -benzenacyclononaphane-3-Yl)pyridine 1-oxide] was run?
A: 5.76 nM

Q: And the Ki [2]?
A: 0.21 nM
